# Measured values taken from publication PMC6320249 (ACS chemical biology, 2015).
# Assays:
# Gcn5 [1] = molecular target: T1, Gcn5 (Homo sapiens, UniProt Q92830); assay: Microfluidic mobility shift KAT assay, Gcn5 with FITC-H3; format: biochemical; conditions: for inhibition of Gcn5 in pilot screen: acetyl-CoA 1 μM, unicate, hydroxylamine quench; for detergent sensitivity of Gcn5 inhibition: low (0.01%) compared to high (0.05%) Triton-X
# p300 = molecular target: T2, p300 (Homo sapiens, UniProt Q09472); assay: Microfluidic mobility shift KAT assay, p300 with FITC-H4; format: biochemical
# T2 sequence (Q09472 1195-1662): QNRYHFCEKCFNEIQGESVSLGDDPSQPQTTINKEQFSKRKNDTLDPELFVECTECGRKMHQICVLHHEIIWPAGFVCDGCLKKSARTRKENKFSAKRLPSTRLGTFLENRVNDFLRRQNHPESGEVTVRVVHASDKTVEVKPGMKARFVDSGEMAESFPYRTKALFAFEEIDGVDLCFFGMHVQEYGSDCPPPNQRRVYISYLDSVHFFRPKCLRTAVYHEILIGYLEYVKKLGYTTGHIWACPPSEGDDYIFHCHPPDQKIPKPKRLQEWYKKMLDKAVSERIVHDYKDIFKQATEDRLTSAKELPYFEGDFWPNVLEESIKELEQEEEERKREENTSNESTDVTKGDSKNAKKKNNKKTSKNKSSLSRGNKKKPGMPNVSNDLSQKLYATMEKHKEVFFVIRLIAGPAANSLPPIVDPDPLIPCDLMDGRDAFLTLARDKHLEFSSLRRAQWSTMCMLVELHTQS
# Gcn5 [2] = molecular target: T1, Gcn5; assay: Real-time kinetic monitoring of Gcn5-catalyzed acetylation; format: biochemical; conditions: first 25 min vs last 25 min of 100 min; uninhibited enzyme = 1
# cell viability = assay: Cell viability / toxicity; format: cell-based; conditions: at concentrations of ~60 μM
# HepG2 cells = assay: Effect of garcinol on acetylation in HepG2 cells; format: cell-based
# T1 sequence (Q92830 497-662): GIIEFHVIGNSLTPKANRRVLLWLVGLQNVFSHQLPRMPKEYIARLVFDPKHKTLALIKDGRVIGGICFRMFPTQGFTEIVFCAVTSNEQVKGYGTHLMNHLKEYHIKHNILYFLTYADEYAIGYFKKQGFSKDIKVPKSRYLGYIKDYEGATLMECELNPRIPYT
SMILES,inhibition of Gcn5 in pilot screen (Gcn5 [1]; compound 40 μM),effect on p300 in pilot screen (in words) (p300; compound 40 μM),time dependence value (ratio of acetylation rates at early/late intervals) (Gcn5 [2]),detergent sensitivity of Gcn5 inhibition (Gcn5 [1]),further results
CCCCCCCc1ccc(CCc2cccc(O)c2C(=O)O)cc1 [MG-149],greater than 40%,–,–,–,–
O=C1c2c(O)ccc(O)c2C(=O)c2c(NCCNCCO)ccc(NCCNCCO)c21 [mitoxantrone],–,selective p300 activation,–,–,–
Cc1cc2c(C(C)C)c(O)c(O)c(C=O)c2c(O)c1-c1c(C)cc2c(C(C)C)c(O)c(O)c(C=O)c2c1O [gossypol],–,–,> 1,detergent-sensitive inhibition,inhibition at 40 µM (Gcn5 [1]; read-out: inhibition of Gcn5 in pilot screen): > 40%
C=C(C)[C@@H](CC=C(C)C)C[C@@]12C[C@@H](CC=C(C)C)C(C)(C)[C@@](CC=C(C)C)(C(=O)C(C(=O)c3ccc(O)c(O)c3)=C1O)C2=O [garcinol],–,Selective inhibition of p300,> 1,significantly greater inhibitory activity,detergent sensitivity of p300 inhibition (p300; low (0.01%) compared to high (0.05%) Triton-X): significantly greater inhibitory activity; toxicity (cell viability): toxic; effect on Gcn5 in pilot screen (in words) (Gcn5 [1]; compound 40 μM): did not manifest as a Gcn5 hit; lowest concentration with effects on acetylation (HepG2 cells): ~ 25 μM
CC(=O)N[C@@H](CCCCNC(=O)CSCCNC(=O)CCNC(=O)[C@H](O)C(C)(C)COP(=O)(O)OP(=O)(O)OC[C@H]1O[C@@H](n2cnc3c(N)ncnc32)[C@H](O)[C@@H]1OP(=O)(O)O)C(N)=O [Lys-CoA],greater than 40%,–,–,–,"inhibition of p300 in pilot screen (p300; compound 40 μM, acetyl-CoA 1 μM, unicate, hydroxylamine quench): greater than 40%; p300 versus Gcn5 selectivity in pilot screen (in words) (p300; compound 40 μM, p300 compared to Gcn5): inhibited p300 considerably more strongly than Gcn5"
